Five molecules from publication PMC10425983 (ACS Infectious Diseases, 2023) can be followed below.

SMILES strings stand for the structures.

Series [1] relates to L. infantum (MHOM/MA(BE)/67/ITMAP263) amastigotes. Put plainly: L. infantum intramacrophage amastigote assay. The format is cell-based, Leishmania infantum. The conditions noted are these: for EC50: Leishmania infantum, 120 h, read-out: L.inf pEC50 (converted); for SI: ratio CC50 μM (PMM)/EC50 μM (L.inf).
For series [2], the system named is primary peritoneal mouse macrophages (PMM). Description: Cytotoxicity toward primary peritoneal mouse macrophages. The format is cell-based. The conditions noted are these: primary mouse macrophages; highest in-test concentration 64 μM.
Series [3] can be described thus: Thermodynamic aqueous solubility. The series is classed as physicochemical.
Series [4] in a line: Human liver microsome intrinsic clearance. The settings on record: human, human liver microsomes, pH 7.4, HLM clint. The format is in vitro ADME.
The nature of series [5]: Rat hepatocyte intrinsic clearance. The settings on record: rat, rat hepatocytes. The series is classed as in vitro ADME.
Series [6] is described as follows: MDCK-wt permeability assay. The series is classed as in vitro ADME, canine. The settings on record: dog.
The next series has as its target CYP3A4 (Homo sapiens, UniProt P08684). Put plainly: CYP inhibition CYP3A4. The format is in vitro ADME. The conditions noted are these: inhibitor class in words.
The target in another series is T1, CYP2C8 (Homo sapiens, UniProt P10632).
T1 sequence (P10632 1-490): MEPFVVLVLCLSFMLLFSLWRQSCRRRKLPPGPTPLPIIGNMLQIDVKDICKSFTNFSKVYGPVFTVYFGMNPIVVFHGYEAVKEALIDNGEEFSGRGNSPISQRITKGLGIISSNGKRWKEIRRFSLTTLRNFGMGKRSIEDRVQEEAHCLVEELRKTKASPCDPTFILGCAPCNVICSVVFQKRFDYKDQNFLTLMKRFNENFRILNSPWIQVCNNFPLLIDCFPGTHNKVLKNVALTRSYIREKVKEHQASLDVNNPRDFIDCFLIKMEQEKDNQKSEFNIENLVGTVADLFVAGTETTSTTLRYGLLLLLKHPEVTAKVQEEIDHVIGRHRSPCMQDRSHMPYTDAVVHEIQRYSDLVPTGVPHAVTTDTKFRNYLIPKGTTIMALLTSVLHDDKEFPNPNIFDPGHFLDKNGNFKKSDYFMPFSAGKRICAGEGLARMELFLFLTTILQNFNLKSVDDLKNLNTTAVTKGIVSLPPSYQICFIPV
Description: CYP inhibition CYP2C8. The format is in vitro ADME.

The target in a further series is hERG (Homo sapiens, UniProt Q12809). Description: hERG channel blockage. The settings on record: hERG pIC50. The series is classed as biochemical.
Series [7] in a line: Cytotoxicity toward primary peritoneal mouse macrophages. The conditions noted are these: Swiss, mouse, primary peritoneal mouse macrophages (PMM), PMM pCC50, primary mouse macrophages; highest in-test concentration 64 μM. The series is classed as cell-based.
The target of the next series is CYP2D6 (Homo sapiens, UniProt P10635). Description: CYP inhibition CYP2D6. The format is in vitro ADME. The conditions noted are these: inhibitor class in words.
A further series has as its target CYP2C19 (Homo sapiens, UniProt P33261). Description: CYP inhibition CYP2C19. The format is in vitro ADME.
Another series deals with T2, CYP1A2 (Homo sapiens, UniProt P05177).
T2 sequence (P05177 1-516): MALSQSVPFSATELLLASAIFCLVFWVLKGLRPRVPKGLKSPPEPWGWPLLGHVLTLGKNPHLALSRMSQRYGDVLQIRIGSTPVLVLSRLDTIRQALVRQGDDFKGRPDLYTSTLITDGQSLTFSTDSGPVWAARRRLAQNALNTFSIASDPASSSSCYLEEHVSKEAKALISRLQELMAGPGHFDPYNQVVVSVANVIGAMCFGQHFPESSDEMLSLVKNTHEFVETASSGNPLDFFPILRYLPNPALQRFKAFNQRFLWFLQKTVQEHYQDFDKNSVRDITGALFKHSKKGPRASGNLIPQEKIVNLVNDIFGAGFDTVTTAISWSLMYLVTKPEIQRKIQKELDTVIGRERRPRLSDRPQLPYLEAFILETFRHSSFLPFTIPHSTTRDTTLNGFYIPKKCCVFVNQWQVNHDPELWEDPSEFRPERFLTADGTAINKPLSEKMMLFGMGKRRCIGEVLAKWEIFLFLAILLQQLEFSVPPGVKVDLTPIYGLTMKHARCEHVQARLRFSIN
Description: CYP inhibition CYP1A2. The format is in vitro ADME.

A further series concerns the target CYP2C9 (Homo sapiens, UniProt P11712). Description: CYP inhibition CYP2C9. The series is classed as in vitro ADME.
Series [8] can be described thus: Free plasma concentration. The series is classed as in vitro ADME. The settings on record: free fraction in plasma.

Usually microsomal CLint stands for the capacity of the preparation to metabolise the compound, expressed as a volume cleared per time. Usually hepatocyte CLint stands for the rate of metabolic loss divided by the concentration. Low values mean greater metabolic stability, high ones faster metabolism. In general, Papp A→B refers to the apparent permeability from the apical to the basolateral side of a cell layer. Read a low Papp A→B as slow passage. One may read the IC50 as the midpoint of a concentration-inhibition curve. One may read the CC50 as the concentration that lowers cell viability or growth by half.

Sequence of CYP2C19 (P33261 whole entry): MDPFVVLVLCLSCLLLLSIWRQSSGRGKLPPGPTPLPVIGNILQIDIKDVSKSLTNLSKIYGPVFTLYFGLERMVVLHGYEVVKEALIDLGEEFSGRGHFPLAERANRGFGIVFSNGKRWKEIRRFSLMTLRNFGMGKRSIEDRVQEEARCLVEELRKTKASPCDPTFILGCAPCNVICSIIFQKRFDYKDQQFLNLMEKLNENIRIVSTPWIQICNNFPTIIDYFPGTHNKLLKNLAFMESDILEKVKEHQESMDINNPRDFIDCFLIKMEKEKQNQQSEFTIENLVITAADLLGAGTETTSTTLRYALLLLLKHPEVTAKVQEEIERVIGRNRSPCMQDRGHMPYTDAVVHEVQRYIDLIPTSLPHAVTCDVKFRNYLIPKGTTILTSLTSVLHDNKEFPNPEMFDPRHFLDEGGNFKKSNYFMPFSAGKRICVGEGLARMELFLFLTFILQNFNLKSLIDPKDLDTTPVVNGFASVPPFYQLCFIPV
Sequence of CYP2C9 (P11712 whole entry): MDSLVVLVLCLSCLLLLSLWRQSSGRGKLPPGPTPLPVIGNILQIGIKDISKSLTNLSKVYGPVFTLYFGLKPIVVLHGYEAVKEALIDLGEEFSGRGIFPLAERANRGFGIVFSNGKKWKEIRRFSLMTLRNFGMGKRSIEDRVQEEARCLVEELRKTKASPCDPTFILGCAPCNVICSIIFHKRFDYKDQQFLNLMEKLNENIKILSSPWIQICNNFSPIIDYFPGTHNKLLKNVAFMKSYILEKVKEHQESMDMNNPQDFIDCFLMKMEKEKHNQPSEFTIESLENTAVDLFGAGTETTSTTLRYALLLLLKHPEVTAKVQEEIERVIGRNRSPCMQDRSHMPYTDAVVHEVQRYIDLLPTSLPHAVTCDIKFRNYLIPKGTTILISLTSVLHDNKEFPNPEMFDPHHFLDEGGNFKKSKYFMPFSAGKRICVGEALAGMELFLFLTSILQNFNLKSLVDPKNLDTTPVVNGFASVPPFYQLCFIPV
Sequence of CYP2D6 (P10635 whole entry): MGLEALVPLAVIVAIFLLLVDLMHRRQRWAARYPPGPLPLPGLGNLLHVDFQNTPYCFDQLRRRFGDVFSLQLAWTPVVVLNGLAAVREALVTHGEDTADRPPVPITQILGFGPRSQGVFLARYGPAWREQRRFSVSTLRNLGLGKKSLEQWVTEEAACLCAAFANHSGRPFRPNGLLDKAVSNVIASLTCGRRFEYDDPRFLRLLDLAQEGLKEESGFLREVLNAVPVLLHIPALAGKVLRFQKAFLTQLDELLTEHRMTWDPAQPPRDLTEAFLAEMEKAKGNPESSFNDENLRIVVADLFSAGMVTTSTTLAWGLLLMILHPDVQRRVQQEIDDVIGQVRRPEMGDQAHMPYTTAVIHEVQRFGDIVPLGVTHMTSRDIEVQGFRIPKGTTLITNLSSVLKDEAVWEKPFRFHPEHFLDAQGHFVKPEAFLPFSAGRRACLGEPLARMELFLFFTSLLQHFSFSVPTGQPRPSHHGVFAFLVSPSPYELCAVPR
Sequence of CYP3A4 (P08684 whole entry): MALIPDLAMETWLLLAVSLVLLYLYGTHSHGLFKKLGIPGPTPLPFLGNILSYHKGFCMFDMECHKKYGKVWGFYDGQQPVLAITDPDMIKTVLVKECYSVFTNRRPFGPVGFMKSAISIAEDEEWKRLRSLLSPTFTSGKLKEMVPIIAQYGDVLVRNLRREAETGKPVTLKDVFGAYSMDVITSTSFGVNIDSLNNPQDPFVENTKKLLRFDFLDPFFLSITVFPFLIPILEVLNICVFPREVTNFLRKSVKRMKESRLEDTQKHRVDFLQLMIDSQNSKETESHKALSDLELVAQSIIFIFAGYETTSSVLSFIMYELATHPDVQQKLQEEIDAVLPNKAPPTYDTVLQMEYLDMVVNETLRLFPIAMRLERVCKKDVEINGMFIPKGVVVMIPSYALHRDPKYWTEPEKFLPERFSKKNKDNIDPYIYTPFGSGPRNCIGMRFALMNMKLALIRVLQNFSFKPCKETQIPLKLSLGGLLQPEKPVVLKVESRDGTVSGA
Sequence of hERG (Q12809 whole entry): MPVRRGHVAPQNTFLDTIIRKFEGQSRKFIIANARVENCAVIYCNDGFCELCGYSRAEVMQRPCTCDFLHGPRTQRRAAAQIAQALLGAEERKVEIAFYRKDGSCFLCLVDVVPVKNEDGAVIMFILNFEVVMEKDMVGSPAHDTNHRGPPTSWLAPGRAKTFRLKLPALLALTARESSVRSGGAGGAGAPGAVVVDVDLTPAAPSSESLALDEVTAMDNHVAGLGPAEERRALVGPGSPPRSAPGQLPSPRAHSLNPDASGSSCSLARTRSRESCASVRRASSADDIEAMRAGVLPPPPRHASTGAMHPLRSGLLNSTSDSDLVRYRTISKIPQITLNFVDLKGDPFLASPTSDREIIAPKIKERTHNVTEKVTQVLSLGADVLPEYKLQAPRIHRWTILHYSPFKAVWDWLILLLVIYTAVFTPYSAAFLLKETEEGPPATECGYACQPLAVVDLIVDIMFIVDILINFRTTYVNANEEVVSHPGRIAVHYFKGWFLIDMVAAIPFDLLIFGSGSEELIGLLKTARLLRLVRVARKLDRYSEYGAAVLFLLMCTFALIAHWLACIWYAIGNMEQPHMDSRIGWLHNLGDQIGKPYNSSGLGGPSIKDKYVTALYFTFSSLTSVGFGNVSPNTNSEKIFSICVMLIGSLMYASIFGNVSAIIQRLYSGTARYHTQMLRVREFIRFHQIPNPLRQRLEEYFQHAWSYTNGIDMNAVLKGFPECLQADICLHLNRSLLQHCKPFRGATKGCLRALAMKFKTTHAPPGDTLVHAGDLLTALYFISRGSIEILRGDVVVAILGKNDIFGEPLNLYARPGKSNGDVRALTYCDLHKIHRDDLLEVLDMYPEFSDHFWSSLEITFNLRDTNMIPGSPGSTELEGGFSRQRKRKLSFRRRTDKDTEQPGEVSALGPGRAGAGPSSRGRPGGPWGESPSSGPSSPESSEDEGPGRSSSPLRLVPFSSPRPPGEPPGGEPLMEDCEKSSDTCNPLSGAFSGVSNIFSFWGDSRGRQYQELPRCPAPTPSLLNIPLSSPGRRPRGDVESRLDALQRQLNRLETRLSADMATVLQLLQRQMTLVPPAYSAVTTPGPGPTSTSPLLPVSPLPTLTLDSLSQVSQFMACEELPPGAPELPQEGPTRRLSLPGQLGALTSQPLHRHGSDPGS

Take `Fc1ccc(Nc2c(-c3ccccn3)nc3ccccn23)cc1` [Compound 3a, N-(4-Fluorophenyl)-2-(pyridin-2-yl)imidazo[1,2-a]pyridin-3-amine]: in [1], the EC50 was 3.98 µM and the SI is 16. Moreover, the “PMM pCC50” value in [2] is under 4.2. The molecule also came in with an aq. sol. in series [3] of 8 µM. In addition, in series [4], the microsomal CLint at 3 µM turned out to be 137 µL/min/mg. In addition, in series [5], the hepatocyte CLint is over 300 µL/min/1e6 cells.

As for `Fc1ccc(Nc2c(-c3ccccn3)nc3ccc(C4CC4)cn23)cc1` [Compound 3p, 6-Cyclopropyl-N-(4-fluorophenyl)-2-(pyridin-2-yl)imidazo[1,2-a]pyridin-3-amine], the EC50 in [1] is 6.31 µM. The SI in [1] worked out at 1. Moreover, the Papp A→B at 2 h, 10 µM in series [6] amounted to 16.7 ×10⁻⁶ cm/s. On CYP3A4, the “CYP3A4 inhibition, classification” value is reported as “moderate inhibition”. In addition, the IC50 at CYP2C8 was 4.9 µM; against hERG, 12.6 µM; at CYP2C19, 1.8 µM; against CYP1A2, 0.59 µM; against CYP2C9, 0.76 µM. The “CYP2C8 inhibition, classification” value at CYP2C8 (inhibitor class in words) is “moderate inhibitor”. Further, the CC50 at 5 days in series [7] was 7.94 µM. Besides, the aq. sol. in series [3] is 0.7 µM. Besides, the “CYP2D6 inhibition, classification” value on CYP2D6 is recorded as “moderate inhibition”. Further, the “CYP2C19 inhibition, classification” value at CYP2C19 (inhibitor class in words) was “moderate inhibitor”. The microsomal CLint at 3 µM in series [4] worked out at 91.6 µL/min/mg. Also, the hepatocyte CLint in series [5] came out at 148 µL/min/1e6 cells. Moreover, the “CYP1A2 inhibition, classification” value at CYP1A2 (inhibitor class in words) is “strong inhibitor”. The “CYP2C9 inhibition, classification” value at CYP2C9 (inhibitor class in words) is given as “strong inhibitor”.

Molecule `COc1ccc2nc(-c3ccccn3)c(N(C)c3ccc(F)cc3)n2c1` [Compound 4n, N-(4-Fluorophenyl)-6-methoxy-N-methyl-2-(pyridin-2-yl)imidazo[1,2-a]pyridin-3-amine] had a free plasma concentration in series [8] of 2%.

As to `COc1ccn2c(N)c(-c3ccccn3)nc2c1` [Compound 7b, 7-Methoxy-2-(pyridin-2-yl)imidazo[1,2-a]pyridin-3-amine], in series [1], the EC50 was 31.6 µM and the SI came to 2. The same molecule registered a CC50 at 5 days in series [7] of over 63.1 µM. Besides, the aq. sol. in [3] was 290 µM. In series [4], the microsomal CLint at 3 µM worked out at 120 µL/min/mg. For the same molecule, the hepatocyte CLint in [5] worked out at 7.1 µL/min/1e6 cells.

With `Fc1ccc(Nc2c(-c3ccccn3)nc3cnccn23)cc1` [Compound 3j, N-(4-Fluorophenyl)-2-(pyridin-2-yl)imidazo[1,2-a]pyrazin-3-amine], in series [1], the EC50 was over 63.1 µM and the SI was 1. The same molecule registered a CC50 at 5 days in series [7] of over 63.1 µM. In [3], this molecule returned an aq. sol. of 61 µM. In [4], this molecule yielded a microsomal CLint at 3 µM of 202 µL/min/mg. For the same molecule, the hepatocyte CLint in series [5] was 64.2 µL/min/1e6 cells.
